Key:
[1] = target: Protein kinase C alpha type (Homo sapiens, UniProt P17252); type: cell-based; details: sf9;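 also: inhibition of PKCalpha kinase activity measured in an enzyme assay with histone as the phosphorylation substrate; in other assays of this panel Not Active means under 50% inhibition at 10 µM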
Nitric oxide synthase 1 = Nitric oxide synthase 1 (Rattus norvegicus, UniProt P29476); type: tissue-based, Cerebellum; also: in other assays of this panel Not Active means under 50% inhibition at 10 µM
Chain of Nitric oxide synthase 1 (P29476 whole entry): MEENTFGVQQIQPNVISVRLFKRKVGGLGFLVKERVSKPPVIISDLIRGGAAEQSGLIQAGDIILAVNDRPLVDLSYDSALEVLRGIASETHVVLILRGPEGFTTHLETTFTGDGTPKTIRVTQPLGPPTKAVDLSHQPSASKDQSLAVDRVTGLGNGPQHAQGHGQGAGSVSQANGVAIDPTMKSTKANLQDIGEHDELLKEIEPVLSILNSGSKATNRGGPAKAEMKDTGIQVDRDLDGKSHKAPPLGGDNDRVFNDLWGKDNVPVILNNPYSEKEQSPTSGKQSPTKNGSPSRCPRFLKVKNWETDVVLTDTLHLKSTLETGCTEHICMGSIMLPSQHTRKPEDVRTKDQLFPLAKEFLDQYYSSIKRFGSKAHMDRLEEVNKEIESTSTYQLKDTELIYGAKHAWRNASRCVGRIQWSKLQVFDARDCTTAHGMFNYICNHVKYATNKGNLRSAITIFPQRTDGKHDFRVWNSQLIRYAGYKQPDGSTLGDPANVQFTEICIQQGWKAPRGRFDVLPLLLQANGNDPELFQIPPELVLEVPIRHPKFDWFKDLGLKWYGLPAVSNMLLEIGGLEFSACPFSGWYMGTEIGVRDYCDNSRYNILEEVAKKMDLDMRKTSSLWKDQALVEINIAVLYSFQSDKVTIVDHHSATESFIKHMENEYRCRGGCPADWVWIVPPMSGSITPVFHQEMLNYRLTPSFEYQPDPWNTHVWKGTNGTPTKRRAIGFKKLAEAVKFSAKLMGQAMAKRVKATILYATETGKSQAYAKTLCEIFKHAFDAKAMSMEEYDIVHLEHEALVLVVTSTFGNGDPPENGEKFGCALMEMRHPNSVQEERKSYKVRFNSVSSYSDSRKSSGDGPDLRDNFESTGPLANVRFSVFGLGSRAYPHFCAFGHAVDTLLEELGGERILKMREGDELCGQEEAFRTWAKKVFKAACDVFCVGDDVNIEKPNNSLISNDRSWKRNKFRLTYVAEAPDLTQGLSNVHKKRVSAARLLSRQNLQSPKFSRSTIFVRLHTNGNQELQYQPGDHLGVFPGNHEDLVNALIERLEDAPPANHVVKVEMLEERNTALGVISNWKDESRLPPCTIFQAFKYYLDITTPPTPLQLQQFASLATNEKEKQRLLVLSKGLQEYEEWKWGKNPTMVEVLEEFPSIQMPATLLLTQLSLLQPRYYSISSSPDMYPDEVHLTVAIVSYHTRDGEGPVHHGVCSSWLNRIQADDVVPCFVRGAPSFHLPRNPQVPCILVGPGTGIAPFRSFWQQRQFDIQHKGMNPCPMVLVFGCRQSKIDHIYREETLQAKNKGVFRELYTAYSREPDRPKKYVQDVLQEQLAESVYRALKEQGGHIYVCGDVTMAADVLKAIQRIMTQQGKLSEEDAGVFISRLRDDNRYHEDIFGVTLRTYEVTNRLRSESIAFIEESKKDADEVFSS

[2] = target: T1, Nitric oxide synthase, inducible (Mus musculus, UniProt P29477); design: species or system Escherichia coli;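 also: inhibition of iNOS enzyme activity measured with L-arginine as substrate; in other assays of this panel Not Active means under 50% inhibition at 10 µM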
T1 sequence (P29477 whole entry): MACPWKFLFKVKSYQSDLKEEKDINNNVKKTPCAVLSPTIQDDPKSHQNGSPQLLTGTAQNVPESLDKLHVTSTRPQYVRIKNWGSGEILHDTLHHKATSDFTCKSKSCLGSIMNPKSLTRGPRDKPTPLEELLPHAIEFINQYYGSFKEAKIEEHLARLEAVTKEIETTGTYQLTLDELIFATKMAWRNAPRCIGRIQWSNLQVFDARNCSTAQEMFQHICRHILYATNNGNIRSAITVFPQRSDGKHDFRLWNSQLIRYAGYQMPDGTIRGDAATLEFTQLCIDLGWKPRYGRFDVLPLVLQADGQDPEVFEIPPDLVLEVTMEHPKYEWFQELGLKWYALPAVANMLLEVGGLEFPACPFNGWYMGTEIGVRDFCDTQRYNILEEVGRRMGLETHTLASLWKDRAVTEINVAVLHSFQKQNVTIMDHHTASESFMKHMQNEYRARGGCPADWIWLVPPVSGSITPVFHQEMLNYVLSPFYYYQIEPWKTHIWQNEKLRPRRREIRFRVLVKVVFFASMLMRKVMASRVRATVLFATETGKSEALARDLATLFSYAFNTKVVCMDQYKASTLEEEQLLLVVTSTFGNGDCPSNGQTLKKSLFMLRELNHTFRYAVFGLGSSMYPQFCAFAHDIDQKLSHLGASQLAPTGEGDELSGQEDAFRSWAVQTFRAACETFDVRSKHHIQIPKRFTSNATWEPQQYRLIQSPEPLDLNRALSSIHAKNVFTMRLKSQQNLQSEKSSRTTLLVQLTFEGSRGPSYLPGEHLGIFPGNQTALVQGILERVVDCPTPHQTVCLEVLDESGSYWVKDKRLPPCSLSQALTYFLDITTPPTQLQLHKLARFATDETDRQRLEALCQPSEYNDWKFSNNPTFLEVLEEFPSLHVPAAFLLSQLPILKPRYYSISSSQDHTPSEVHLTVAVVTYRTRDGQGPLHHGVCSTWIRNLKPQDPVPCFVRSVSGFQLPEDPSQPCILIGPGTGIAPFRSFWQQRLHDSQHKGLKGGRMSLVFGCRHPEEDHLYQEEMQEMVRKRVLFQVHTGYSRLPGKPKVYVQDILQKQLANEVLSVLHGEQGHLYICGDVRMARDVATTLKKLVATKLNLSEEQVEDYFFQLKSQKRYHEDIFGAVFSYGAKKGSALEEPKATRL

[3] = target: T2, C-C chemokine receptor type 4 (Homo sapiens, UniProt P51679); type: cell membranes, Membrane; details: chem-1; also: in other assays of this panel Not Active means under 50% inhibition at 10 µM
T2 sequence (P51679 whole entry): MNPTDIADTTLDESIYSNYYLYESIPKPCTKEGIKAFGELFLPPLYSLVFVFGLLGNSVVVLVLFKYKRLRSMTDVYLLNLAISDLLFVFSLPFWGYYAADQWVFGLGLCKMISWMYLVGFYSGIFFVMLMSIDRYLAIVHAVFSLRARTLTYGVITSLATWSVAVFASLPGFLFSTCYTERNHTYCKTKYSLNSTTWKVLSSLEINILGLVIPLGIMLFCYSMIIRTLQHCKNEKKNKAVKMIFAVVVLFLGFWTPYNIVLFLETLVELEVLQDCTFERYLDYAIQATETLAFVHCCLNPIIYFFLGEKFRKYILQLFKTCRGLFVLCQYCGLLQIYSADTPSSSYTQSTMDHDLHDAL

[4] = target: T3, Polyunsaturated fatty acid lipoxygenase ALOX15 (Oryctolagus cuniculus, UniProt P12530); test: biochemical; type: tissue-based, Reticulocytes; details: reticulocytes
T3 sequence (P12530 whole entry): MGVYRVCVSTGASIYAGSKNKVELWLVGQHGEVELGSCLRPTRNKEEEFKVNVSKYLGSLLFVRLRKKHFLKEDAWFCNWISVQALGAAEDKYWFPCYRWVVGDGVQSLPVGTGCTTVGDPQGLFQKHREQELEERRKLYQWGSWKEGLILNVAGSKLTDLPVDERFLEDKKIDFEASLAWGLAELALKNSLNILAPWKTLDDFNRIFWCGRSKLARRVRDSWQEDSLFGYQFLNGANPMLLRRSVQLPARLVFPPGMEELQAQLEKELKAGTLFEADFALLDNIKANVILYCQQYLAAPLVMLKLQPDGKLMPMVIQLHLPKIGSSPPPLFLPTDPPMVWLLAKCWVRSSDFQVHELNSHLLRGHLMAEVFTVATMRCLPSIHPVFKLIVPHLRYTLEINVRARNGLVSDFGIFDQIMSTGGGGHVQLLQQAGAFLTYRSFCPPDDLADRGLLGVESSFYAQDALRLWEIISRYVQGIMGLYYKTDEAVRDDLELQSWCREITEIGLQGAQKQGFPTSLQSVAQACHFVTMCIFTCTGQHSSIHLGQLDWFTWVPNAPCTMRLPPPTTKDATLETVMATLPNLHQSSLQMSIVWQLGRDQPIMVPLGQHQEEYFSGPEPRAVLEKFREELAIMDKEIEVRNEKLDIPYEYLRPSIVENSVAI

[5] = target: T4, Muscarinic acetylcholine receptor M2 (Homo sapiens, UniProt P08172); type: cell membranes, CHO-K1, Membrane; also: in other assays of this panel Not Active means under 50% inhibition at 10 µM
T4 sequence (P08172 whole entry): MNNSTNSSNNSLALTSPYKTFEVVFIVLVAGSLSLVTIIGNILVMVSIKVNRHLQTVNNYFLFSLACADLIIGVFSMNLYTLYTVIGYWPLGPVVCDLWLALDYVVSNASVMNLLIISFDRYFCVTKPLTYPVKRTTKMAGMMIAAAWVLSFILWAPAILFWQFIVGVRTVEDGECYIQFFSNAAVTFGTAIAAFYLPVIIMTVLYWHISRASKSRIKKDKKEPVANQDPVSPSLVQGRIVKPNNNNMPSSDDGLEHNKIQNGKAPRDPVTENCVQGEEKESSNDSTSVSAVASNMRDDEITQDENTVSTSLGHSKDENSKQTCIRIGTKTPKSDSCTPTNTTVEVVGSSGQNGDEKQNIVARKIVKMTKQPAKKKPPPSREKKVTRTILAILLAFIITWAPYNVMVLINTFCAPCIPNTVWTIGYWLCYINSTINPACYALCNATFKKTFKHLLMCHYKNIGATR

[6] = DRUGMATRIX: Glutamate, NMDA, Agonism radioligand binding (ligand: [3H] CGP-39653); type: cell membranes, Rattus norvegicus, Wistar, Cerebral cortex, Membrane; details: Not Active = under 50% inhibition at 10 µM
[7] = target: Kappa-type opioid receptor (Homo sapiens, UniProt P41145); test: DRUGMATRIX: Opiate kappa (OP2, KOP) radioligand binding (ligand: [3H] Diprenorphine); type: cell membranes, HEK293, Membrane; details: hek293; Not Active = under 50% inhibition at 10 µM
Chain of Kappa-type opioid receptor (P41145 whole entry): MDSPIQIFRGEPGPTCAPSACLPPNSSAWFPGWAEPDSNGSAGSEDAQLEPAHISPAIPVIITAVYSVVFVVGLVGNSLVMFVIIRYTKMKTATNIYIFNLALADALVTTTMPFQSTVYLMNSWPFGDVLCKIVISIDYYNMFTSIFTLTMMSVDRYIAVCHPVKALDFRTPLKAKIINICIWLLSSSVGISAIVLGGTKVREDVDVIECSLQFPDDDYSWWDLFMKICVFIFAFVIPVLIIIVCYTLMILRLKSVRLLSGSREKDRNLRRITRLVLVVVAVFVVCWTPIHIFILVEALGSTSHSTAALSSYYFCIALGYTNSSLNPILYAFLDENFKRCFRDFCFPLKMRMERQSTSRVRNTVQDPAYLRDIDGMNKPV

| SMILES | IC50 [1] | IC50 (Nitric oxide synthase 1) | IC50 [2] | IC50 [3] | IC50 [4] | IC50 ([5]; cho-k1) | IC50 [6] | Ki [6] | IC50 [7] | IC50 ([5]; read-out: IC50) [nM] | Ki ([5]; read-out: Ki) [nM] |
| --- | --- | --- | --- | --- | --- | --- | --- | --- | --- | --- | --- |
| COCc1c(C(C)C)nc(C(C)C)c(/C=C/[C@@H](O)C[C@@H](O)CC(=O)O)c1-c1ccc(F)cc1 [CERIVASTATIN] | Not Active | Not Active | Not Active | Not Active | Not Active | Not Active | Not Active | Not Active | Not Active | – | – |
| O=P1(NCCCl)OCCCN1CCCl (configuration not stated) [IFOSFAMIDE] | Not Active | Not Active | Not Active | Not Active | Not Active | Not Active | Not Active | Not Active | Not Active | – | – |
| CC(C)NC[C@H](O)COc1cccc2[nH]ccc12 | Not Active | Not Active | Not Active | Not Active | Not Active | Not Active | Not Active | Not Active | Not Active | – | – |
| O=C1NC(=O)C(c2ccccc2)(c2ccccc2)N1 [PHENYTOIN] | Not Active | Not Active | Not Active | Not Active | Not Active | Not Active | Not Active | Not Active | Not Active | – | – |
| O=C1CCc2cc(OCCCCc3nnnn3C3CCCCC3)ccc2N1 [CILOSTAZOL] | Not Active | Not Active | Not Active | Not Active | Not Active | Not Active | Not Active | Not Active | Not Active | – | – |
| C=C1CC[C@H](O)C/C1=C/C=C1\CCC[C@]2(C)[C@@H]([C@H](C)/C=C/[C@H](C)C(C)C)CC[C@@H]12 [ERGOCALCIFEROL] | Not Active | Not Active | Not Active | Not Active | Not Active | Not Active | Not Active | Not Active | Not Active | – | – |
| COc1ccc(CN(CCN(C)C)c2ccccn2)cc1 [PYRILAMINE] | Not Active | Not Active | Not Active | Not Active | Not Active | Not Active | Not Active | Not Active | Not Active | – | – |
| NCC(=O)O [GLYCINE] | Not Active | Not Active | Not Active | Not Active | Not Active | Not Active | Not Active | Not Active | Not Active | – | – |
| CN1C(C(=O)Nc2ccccn2)=C(O)c2ccccc2S1(=O)=O [PIROXICAM] | Not Active | Not Active | Not Active | Not Active | Not Active | Not Active | Not Active | Not Active | Not Active | – | – |
| CCc1ccc(C(=O)C(C)CN2CCCCC2)cc1 (configuration not stated) [EPERISONE] | Not Active | Not Active | Not Active | Not Active | Not Active | – | Not Active | Not Active | Not Active | 2340 | 831 |
| CC(=O)[C@@]1(O)CC[C@H]2[C@@H]3C[C@H](C)C4=CC(=O)C=C[C@]4(C)[C@@]3(F)[C@@H](O)C[C@@]21C [FLUOROMETHOLONE] | Not Active | Not Active | Not Active | Not Active | Not Active | Not Active | Not Active | Not Active | Not Active | – | – |
| CCC1(c2ccccc2)C(=O)NCNC1=O [PRIMIDONE] | Not Active | Not Active | Not Active | Not Active | Not Active | Not Active | Not Active | Not Active | Not Active | – | – |
| CC(C)(Oc1ccc(CCNC(=O)c2ccc(Cl)cc2)cc1)C(=O)O [BEZAFIBRATE] | Not Active | Not Active | Not Active | Not Active | Not Active | Not Active | Not Active | Not Active | Not Active | – | – |
| CC=CC(=O)N(CC)c1ccccc1C | Not Active | Not Active | Not Active | Not Active | Not Active | Not Active | Not Active | Not Active | Not Active | – | – |

Reference: ChEMBL document CHEMBL1909046, “DrugMatrix in vitro pharmacology data”
